Measurements published in patent US20240083845A1 (priority 2020, published 2024).

Biological target: SARS-CoV-2 Mpro (Severe acute respiratory syndrome coronavirus 2, UniProt P0DTD1)
Assay: SARS-CoV-2 Mpro enzyme assay (FRET)
Format: biochemical
Conditions: FRET substrate Dabcyl-KTSAVLQSGFRKM-E(Edans)-Amide, 20 nM enzyme, 30 min preincubation at 30° C., mean n=2; read-out: SARS-CoV-2 Mpro enzyme assay pKi (converted)

Compound	Ki
C[C@@H](CC(=O)N[C@@H](CC(C)(C)C)C(=O)NC(C[C@@H]1CCNC1=O)C(=O)C(=O)NC1CC1)c1ccccc1 (stereo partly drawn) [Example 12, (2S)-N-(4-(cyclopropylamino)-3,4-dioxo-1-((S)-2-oxopyrrolidin-3-yl)butan-2-yl)-4,4-dimethyl-2-((S)-3-phenylbutanamido)pentanamide]	0.0158 µM
CC(C)(C)C[C@H](NC(=O)/C=C/c1ccc(Cl)cc1Cl)C(=O)NC(C[C@@H]1CCNC1=O)C(=O)C(N)=O (stereo partly drawn) [Example 27, (2S)-N-(4-amino-3,4-dioxo-1-((S)-2-oxopyrrolidin-3-yl)butan-2-yl)-2-((E)-3-(2,4-dichlorophenyl)acrylamido)-4,4-dimethylpentanamide]	0.00794 µM
CC(C)(C)C[C@H](NC(=O)/C=C/c1ccc(Cl)cc1Cl)C(=O)NC(C#N)C[C@@H]1CCNC1=O (stereo partly drawn) [Example 9, (2S)-N-(1-Cyano-2-((S)-2-oxopyrrolidin-3-yl)ethyl)-2-((E)-3-(2,4-dichlorophenyl)acrylamido)-4,4-dimethylpentanamide]	0.398 µM
CCNC(=O)C(=O)C(C[C@@H]1CCNC1=O)NC(=O)[C@H](CC(C)(C)C)NC(=O)/C=C/c1ccc(Cl)cc1Cl (stereo partly drawn) [Example 26, (2S)-2-((E)-3-(2,4-dichlorophenyl)acrylamido)-N-(4-(ethylamino)-3,4-dioxo-1-((S)-2-oxopyrrolidin-3-yl)butan-2-yl)-4,4-dimethylpentanamide]	0.01 µM
CCNC(=O)C(=O)C(C[C@@H]1CCNC1=O)NC(=O)[C@H](CC1CC1)NC(=O)/C=C/c1ccc(Cl)cc1F (stereo partly drawn) [Example 19, 3-((S)-2-((E)-3-(4-chloro-2-fluorophenyl)acrylamido)-3-cyclopropylpropanamido)-N-ethyl-2-oxo-4-((S)-2-oxopyrrolidin-3-yl)butanamide]	0.0126 µM
NC(=O)C(=O)C(CC1CC1)NC(=O)[C@H](CC1CC1)NC(=O)/C=C/c1ccc(Cl)cc1F (stereo partly drawn) [Example 6, 3-((S)-2-((E)-3-(4-chloro-2-fluorophenyl)acrylamido)-3-cyclopropylpropanamido)-4-cyclopropyl-2-oxobutanamide]	5.01 µM
CC[C@H](CC(=O)N[C@@H](CC(C)(C)C)C(=O)NC(C[C@@H]1CCNC1=O)C(=O)C(=O)NC1CC1)c1ccccc1 (single isomer, unassigned) [Example 15]	0.01 µM
NC(=O)C(=NO)C(C[C@@H]1CCNC1=O)NC(=O)[C@H](CC1CC1)NC(=O)/C=C/c1ccc(Cl)cc1F (stereo partly drawn) [Example 4, 3-((S)-2-((E)-3-(4-chloro-2-fluorophenyl)acrylamido)-3-cyclopropylpropanamido)-2-(hydroxyimino)-4-((S)-2-oxopyrrolidin-3-yl)butanamide]	1 µM
CC(C)C[C@H](NC(=O)/C=C/c1ccc(Cl)cc1F)C(=O)NC(C[C@@H]1CCNC1=O)C(=O)C(N)=O (stereo partly drawn) [Example 18, (2S)-N-(4-amino-3,4-dioxo-1-((S)-2-oxopyrrolidin-3-yl)butan-2-yl)-2-((E)-3-(4-chloro-2-fluorophenyl)acrylamido)-4-methylpentanamide]	0.0126 µM
CCNC(=O)C(=O)C(C[C@@H]1CCNC1=O)NC(=O)[C@H](CC1CC1)NC(=O)/C=C/c1ccc(Cl)cc1Cl (stereo partly drawn) [Example 24, 3-((S)-3-cyclopropyl-2-((E)-3-(2,4-dichlorophenyl)acrylamido)propanamido)-N-ethyl-2-oxo-4-((S)-2-oxopyrrolidin-3-yl)butanamide]	0.0126 µM
NC(=O)C(=O)C(C[C@@H]1CCNC1=O)NC(=O)[C@H](CC1CC1)NC(=O)CCc1ccccc1 (stereo partly drawn) [Example 8, 3-((S)-3-cyclopropyl-2-(3-phenylpropanamido)propanamido)-2-oxo-4-((S)-2-oxopyrrolidin-3-yl)butanamide]	0.0501 µM
CC[C@H](CC(=O)N[C@@H](CC1CC1)C(=O)NC(C[C@@H]1CCNC1=O)C(=O)C(=O)NC1CC1)c1ccccc1 (stereo partly drawn) [Example 33, (3R)-N-((2S)-3-cyclopropyl-1-((4-(cyclopropylamino)-3,4-dioxo-1-((S)-2-oxopyrrolidin-3-yl)butan-2-yl)amino)-1-oxopropan-2-yl)-3-phenylpentanamide]	0.0251 µM
CC(C)(C)C[C@H](NC(=O)C[C@@H](c1ccccc1)C(F)(F)F)C(=O)NC(C[C@@H]1CCNC1=O)C(=O)C(=O)NC1CC1 (single isomer, unassigned) [Example 16]	0.02 µM
CC(C)(C)C[C@H](NC(=O)C[C@H](c1ccccc1)C(F)(F)F)C(=O)NC(C[C@@H]1CCNC1=O)C(=O)C(=O)NC1CC1 (single isomer, unassigned) [Example 17]	0.0126 µM
O=C(/C=C/c1ccc(Cl)cc1F)N[C@@H](CC1CCC1)C(=O)NC(C[C@@H]1CCNC1=O)C(=O)C(=O)NC1CC1 (stereo partly drawn) [Example 31, 3-((S)-2-((E)-3-(4-chloro-2-fluorophenyl)acrylamido)-3-cyclobutylpropanamido)-N-cyclopropyl-2-oxo-4-((S)-2-oxopyrrolidin-3-yl)butanamide]	0.0251 µM
CC[C@@H](CC(=O)N[C@@H](CC(C)(C)C)C(=O)NC(C[C@@H]1CCNC1=O)C(=O)C(=O)NC1CC1)c1ccccc1 (single isomer, unassigned) [Example 14]	0.00794 µM
CC[C@@H](CC(=O)N[C@@H](CC1CC1)C(=O)NC(C[C@@H]1CCNC1=O)C(=O)C(=O)NC1CC1)c1ccccc1 (stereo partly drawn) [Example 32, (3 S)-N-((2S)-3-cyclopropyl-1-((4-(cyclopropylamino)-3,4-dioxo-1-((S)-2-oxopyrrolidin-3-yl)butan-2-yl)amino)-1-oxopropan-2-yl)-3-phenylpentanamide]	0.0126 µM
NC(=O)C(=O)C(C[C@@H]1CCNC1=O)NC(=O)[C@H](CC1CC1)NC(=O)OCc1ccccc1 (stereo partly drawn) [Example 3, benzyl ((2S)-1-((4-amino-3,4-dioxo-1-((S)-2-oxopyrrolidin-3-yl)butan-2-yl)amino)-3-cyclopropyl-1-oxopropan-2-yl)carbamate]	0.0251 µM
O=C(CCc1ccc(Cl)cc1Cl)N[C@@H](CC1CC1)C(=O)NC(C[C@@H]1CCNC1=O)C(=O)C(=O)NC1CC1 (stereo partly drawn) [Example 30, N-cyclopropyl-3-((S)-3-cyclopropyl-2-(3-(2,4-dichlorophenyl)propanamido)propanamido)-2-oxo-4-((S)-2-oxopyrrolidin-3-yl)butanamide]	0.02 µM
CC(C)(C)C[C@H](NC(=O)/C=C/c1ccc(Cl)cc1Cl)C(=O)NC(C[C@@H]1CCNC1=O)C(=O)C(=O)NC1CC1 (stereo partly drawn) [Example 10, (2S)-N-(4-(Cyclopropylamino)-3,4-dioxo-1-((S)-2-oxopyrrolidin-3-yl)butan-2-yl)-2-((E)-3-(2,4-dichlorophenyl)acrylamido)-4,4-dimethylpentanamide]	0.00631 µM
O=C(N[C@@H](CC1CC1)C(=O)NC(C[C@@H]1CCNC1=O)C(=O)C(=O)NC1CC1)OCc1ccccc1 (stereo partly drawn) [Example 29, benzyl ((2S)-3-cyclopropyl-1-((4-(cyclopropylamino)-3,4-dioxo-1-((S)-2-oxopyrrolidin-3-yl)butan-2-yl)amino)-1-oxopropan-2-yl)carbamate]	0.0158 µM
NC(=O)C(=O)C(C[C@@H]1CCNC1=O)NC(=O)[C@H](CC1CC1)NC(=O)/C=C/c1ccccc1 (stereo partly drawn) [Example 2, 3-((S)-2-cinnamamido-3-cyclopropylpropanamido)-2-oxo-4-((S)-2-oxopyrrolidin-3-yl)butanamide]	0.02 µM
NC(=O)C(=O)C(C[C@@H]1CCNC1=O)NC(=O)[C@H](CC1CC1)NC(=O)/C=C/c1ccc(Cl)cc1Cl (stereo partly drawn) [Example 20, 3-((S)-3-cyclopropyl-2-((E)-3-(2,4-dichlorophenyl)acrylamido)propanamido)-2-oxo-4-((S)-2-oxopyrrolidin-3-yl)butanamide]	0.1 µM
O=C(/C=C/c1ccc(Cl)cc1Cl)N[C@@H](CC1CC1)C(=O)NC(C[C@@H]1CCNC1=O)C(=O)C(=O)NC1CC1 (stereo partly drawn) [Example 25, N-cyclopropyl-3-((S)-3-cyclopropyl-2-((E)-3-(2,4-dichlorophenyl)acrylamido)propanamido)-2-oxo-4-((S)-2-oxopyrrolidin-3-yl)butanamide]	0.01 µM
CC(C)(C)NC(=O)C(=O)C(C[C@@H]1CCNC1=O)NC(=O)[C@H](CC1CC1)NC(=O)/C=C/c1ccc(Cl)cc1F (stereo partly drawn) [Example 5, N-(tert-butyl)-3-((S)-2-((E)-3-(4-chloro-2-fluorophenyl)acrylamido)-3-cyclopropylpropanamido)-2-oxo-4-((S)-2-oxopyrrolidin-3-yl)butanamide]	0.501 µM
O=C(/C=C/c1ccc(Cl)cc1F)N[C@@H](CC1CC1)C(=O)NC(C[C@@H]1CCNC1=O)C(=O)C(=O)NC1CC1 (stereo partly drawn) [Example 28, 3-((S)-2-((E)-3-(4-chloro-2-fluorophenyl)acrylamido)-3-cyclopropylpropanamido)-N-cyclopropyl-2-oxo-4-((S)-2-oxopyrrolidin-3-yl)butanamide]	0.0158 µM
C[C@H](CC(=O)N[C@@H](CC(C)(C)C)C(=O)NC(C[C@@H]1CCNC1=O)C(=O)C(=O)NC1CC1)c1ccccc1 (stereo partly drawn) [Example 13, (2S)-N-(4-(cyclopropylamino)-3,4-dioxo-1-((S)-2-oxopyrrolidin-3-yl)butan-2-yl)-4,4-dimethyl-2-((R)-3-phenylbutanamido)pentanamide]	0.0158 µM
O=C(/C=C/c1ccc(Cl)cc1F)N[C@@H](CC1CC1)C(=O)NC(C[C@@H]1CCNC1=O)C(=O)C(=O)NC1CC1 (stereo partly drawn) [Example 21, 3-((S)-2-((E)-3-(4-chloro-2-fluorophenyl)acrylamido)-3-cyclopropylpropanamido)-N-cyclopropyl-2-oxo-4-((S)-2-oxopyrrolidin-3-yl)butanamide]	0.00794 µM
CC(C)(C)C[C@H](NC(=O)/C=C/c1ccc(Cl)cc1F)C(=O)NC(C[C@@H]1CCNC1=O)C(=O)C(=O)NC1CC1 (stereo partly drawn) [Example 11, (2S)-2-((E)-3-(4-chloro-2-fluorophenyl)acrylamido)-N-(4-(cyclopropylamino)-3,4-dioxo-1-((S)-2-oxopyrrolidin-3-yl)butan-2-yl)-4,4-dimethylpentanamide]	100000 µM
CCNC(=O)C(=O)C(C[C@@H]1CCNC1=O)NC(=O)[C@H](CC(C)(C)C)NC(=O)/C=C/c1ccc(Cl)cc1F (stereo partly drawn) [Example 23, (2S)-2-((E)-3-(4-chloro-2-fluorophenyl)acrylamido)-N-(4-(ethylamino)-3,4-dioxo-1-((S)-2-oxopyrrolidin-3-yl)butan-2-yl)-4,4-dimethylpentanamide]	0.0126 µM
